Entries after “also recorded” stand apart in the source; their conditions may differ. Like-named read-outs stand apart in the source and are kept apart here.
How the values were obtained:
murine L1210 lymphocytes = assay: DNA alkaline elution filter assay, DNA damage in murine L1210 lymphocytes; assay type: cell-based; settings: L1210
Description: (§1) By means of the DNA alkaline elution filter assay technique, it is possible to assess the nature of damage induced in DNA by exposure to drugs and other agents. Depending on the assay conditions, DNA lesions can be quantified as direct strand breaks, DNA-DNA interstrand crosslinks, and protein-associated strand breaks and crosslinks. The action of akylating-type drugs on DNA typically results in a predominant formation of direct DNA single-strand breaks and DNA-DNA crosslinks. DNA intercalating agents show a preponderance of protein-associated DNA damage, detectable as protein-associated single-strand breaks and DNA-protein crosslinks.
(§2) The nature of nitrosoureidoanthracycline-induced DNA damage in murine L1210 and human CLL lymphocytes was assessed by means of the alkaline elution filter technique. Murine L1210 leukemic lymphocytes, like P388/S lymphocytes, are known to contain high levels of topoisomerase II.
(§3) *All concentrations 1 μM, 1hr incubation. Each entry represents the
(§4) mean of at least two experiments, frequency per 10^6 nucleotides;
(§5) statistically significant increase above background underlined. DB, direc
(§6) (nonenzymatic) DNA breaks; PAB, proteinassociated DNA cleavage; DDCL,
(§7) interstrand DNA crosslinks; DPCL, DNAprotein crosslinks.

[1] = system: murine L1210 leukemia cells; assay: Clonogenic assay with cultured murine L1210 leukemia cells, 1 h drug exposure (LD90); assay type: cell-based; settings: for clonogenic cell kill: L1210, 1 hour exposure; for IC90: Mus musculus, L1210, 1 hr drug exposure, read-out: L1210 LD90 (dose killing 90% of clonogens)
Procedure: (§8) Culture and bioassay conditions were as described in Cancer Chemotherapy Pharmacology 20:277 (1987) "Comparative Effects of Adriamycin and DNA-nonbinding Analogues on DNA, RNA, and Protein Synthesis in Vitro", Israel et al., except that cell counts were determined by hemocytometer rather than by automated cell counting.
+Dose killing 90% of clonogens, 1hr. drug exposure.

[2] = system: human CEM leukemic lymphocytes; assay: Growth inhibition of human CEM leukemic lymphocyte suspension cultures, 48 h continuous drug exposure (ID50); assay type: cell-based; settings: for growth inhibitory activity: CEM in vitro; for IC50: Homo sapiens, Lymphocyte, CEM, 48 hr continuous drug exposure (Table 2), read-out: ID50 (the source's name)
Procedure: as §8

DNA topoisomerase II = assay: Drug-stimulated topoisomerase II-mediated DNA cleavage assay (end-labeled PMC41 DNA); assay type: biochemical; settings: for enhancement of topoisomerase II-mediated DNA cleavage: 625-fold concentration range; for DNA topoisomerase II-inhibitory and alkylating activity: summary of biochemical studies
Description: FIGS. 5A and 5B are a photographic reproduction of the results of drug-stimulated topoisomerase II-mediated DNA cleavage assays performed on various compounds, including compounds of the present invention.
DNA intercalation is a necessary but not a sufficient requirement for DNA topoisomerase II-mediated DNA cleavage. Accordingly, determination of drug-induced enzyme inhibition requires direct assay with isolated topoisomerase II. These assays involve determination of drug-enhanced topoisomerase II-mediated cleavage of PMC41 DNA appropriately end-labeled with [α-^32 P]dATP. As better seen in FIG. 5B, lane B, purified topoisomerase II, under the assay conditions, causes fragmentation of the DNA (background cleavage), as indicated by the radioautographic appearance of bands of cleaved DNA having differing mass values.

[3] = Chemical stability / autodegradation to oxazolidinone (HPLC); assay type: physicochemical
Description: FIGS. 2A and 2B are reproductions of HPLC printouts showing autodegration of N-2-chloroethylnitrosoureidoadriamycin.
Again, depending upon the specific compound, similar results were seen when compounds were exposed to aqueous media or even maintained in the dry state in a vacuum desiccator. Of importance, all daunorubicin urea and nitrosourea products, regardless of the specific alkyl or aryl substituent, afforded the same anthracycline degradation product; similarly, all adriamycin ureas and nitrosoureas afforded the same other degradation material.
Epirubicin (4'-epiadriamycin) is an example of such a starting material.

[4] = Solubility in water or saline; assay type: physicochemical
Procedure: Accordingly, the compounds are formulated for administration by dissolving the compound in a pharmaceutically acceptable non-toxic carrier which contains a surfactant. The present inventors employ a formulation of 10% Cremaphor EL (a polyhydroxylated castor oil derivative) available from BASF Chemicals, 10% ethanol and 80% aqueous media (sterile water or saline solution). That quantity of the compound desired for establishing an effective dose is dissolved in a 1:1 mixture of Cremaphor EL and ethanol. Thereafter, sufficient aqueous medium is added with stirring to develop a final formulation containing 80% aqueous medium. This formulation is administered parenterally.

murine P388 leukemia = assay: In vivo antitumor activity vs. murine P388 (P388/S) leukemia; design: species or system murine (B6D2F1 males); settings: for Long-term survivors / Median increase in lifespan / Median survival / Net mean percent weight change, day 7 / Range of deaths (dying animals): ip
Description: Initial studies utilized a multiple dose schedule, with drug administered once daily on days 1, 2, 3 and 4. […] The marked activity of AD 312 in this system has been confirmed in multiple separate experiments.
Additional studies were done with AD 312 vs. murine P388/S under more demanding conditions of assay.
^a Summary results of 4 separate experiments. B6D2F1 males; 1 ×

human CLL lymphocytes = assay: DNA alkaline elution filter assay, DNA damage in human CLL lymphocytes; assay type: cell-based; settings: for DD-CL, interstrand DNA crosslinks / DP-CL, DNA-protein crosslinks: CLL, 1 μM, 1 hr incubation
Description: as §1, §2, §3, §4, §5, §6, §7
B-cell type lymphocytes freshly obtained from patients with chronic lymphocytic leukemia (CLL) show undetectable levels of topoisomerase II.

[5] = system: plasmid PC15 supercoiled DNA; assay: DNA unwinding assay (interference with DNA topoisomerase I-mediated unwinding; drug-DNA intercalation); assay type: biochemical
Description: DNA unwinding assays were used to measure the ability of a test drug to interfere with DNA topoisomerase I-mediated unwinding of plasmid PC15 supercoiled DNA. DNA topoisomerase I controls the topology of double-stranded DNA and is itself not inhibited by DNA intercalating agents. Rather, intercalating agents cause distortion of the torsional angle between adjacent DNA strand components and thereby interfere with the ability of topoisomerase I to convert supercoiled DNA into relaxed forms. Accordingly, this assay is taken as the definitive test of drug-DNA intercalation.
Drugs were tested at 4 concentrations over a 125-fold concentration range. […] These compounds are 2-chloroethylurea derivatives of daunorubicin and adriamycin, respectively (i.e. not nitrosoureas, but chemical intermediates from which the nitrosoureas were derived).

Structure (SMILES): COc1cccc2c1C(=O)c1c(O)c3c(c(O)c1C2=O)C[C@@](O)(C(=O)CO)C[C@@H]3O[C@H]1C[C@H](NC(=O)N(CCCl)N=O)[C@@H](O)[C@H](C)O1 [AD 392, 2-chloroethylnitrosoureidoepirubicin]
- pattern of DNA damage (murine L1210 lymphocytes): pattern of DNA damage consistent with both topoisomerase II inhibition and DNA-alkylatingaction
- clonogenic cell kill [1]: essentially equipotent
- IC90 [1]: 530 nM
- potency compared to adriamycin (more potent) [2]: 10 fold
- growth inhibitory activity [2]: almost identical in vitro biological properties; also recorded: moderate to marked growth inhibitory activity
- IC50 [2]: 5 nM
- enhancement of topoisomerase II-mediated DNA cleavage (DNA topoisomerase II): no saturation of background cleavage
- DNA topoisomerase II-inhibitory and alkylating activity (DNA topoisomerase II): clearly establish the DNA topoisomerase II-inhibitory activity and alkylating activity
- chemical stability / tendency to decompose to oxazolidinone ([3]; relative to adriamycin-derived products): improved chemical stability
- solubility ([4]; water or saline solution): essentially insoluble in water or saline solution
- solubility ([4]; water, of the order of, read-out: solubility in water): < 25 µg/mL

Structure (SMILES): COc1cccc2c1C(=O)c1c(O)c3c(c(O)c1C2=O)C[C@@](O)(C(=O)CO)C[C@@H]3O[C@H]1C[C@H](NC(=O)N(CCCl)N=O)[C@H](O)[C@H](C)O1 [AD 347, 2-chloroethylnitrosoureidoadriamycin]
- pattern of DNA damage (murine L1210 lymphocytes): pattern of DNA damage consistent with both topoisomerase II inhibition and DNA-alkylatingaction
- increase in life span (murine P388 leukemia; P388/S, 16.0 mg/kg/day×4): > 500%
- survival at 60 days (murine P388 leukemia; P388/S, 16.0 mg/kg/day×4): 57%
- Long-term survivors (murine P388 leukemia; 2.0 mg/kg qd 1-4 (Table 7)): 0/7
- Median increase in lifespan (murine P388 leukemia; 2.0 mg/kg qd 1-4 (Table 7)): +70%
- Median survival (murine P388 leukemia; 2.0 mg/kg qd 1-4 (Table 7)): 17 days
- Net mean percent weight change, day 7 (murine P388 leukemia; 2.0 mg/kg qd 1-4 (Table 7)): +8%
- Range of deaths (dying animals) (murine P388 leukemia; 2.0 mg/kg qd 1-4 (Table 7)): 16 to 18 days
- Long-term survivors (murine P388 leukemia; 4.0 mg/kg qd 1-4 (Table 7)): 0/7
- Median increase in lifespan (murine P388 leukemia; 4.0 mg/kg qd 1-4 (Table 7)): +90%
- Median survival (murine P388 leukemia; 4.0 mg/kg qd 1-4 (Table 7)): 19 days
- Net mean percent weight change, day 7 (murine P388 leukemia; 4.0 mg/kg qd 1-4 (Table 7)): +2%
- Range of deaths (dying animals) (murine P388 leukemia; 4.0 mg/kg qd 1-4 (Table 7)): 18 to 21 days
- Long-term survivors (murine P388 leukemia; 8.0 mg/kg qd 1-4): 0/7
- Median increase in lifespan (murine P388 leukemia; 8.0 mg/kg qd 1-4): +120%
- Median survival (murine P388 leukemia; 8.0 mg/kg qd 1-4): 22 days
- Net mean percent weight change, day 7 (murine P388 leukemia; 8.0 mg/kg qd 1-4): +2%
- Range of deaths (dying animals) (murine P388 leukemia; 8.0 mg/kg qd 1-4): 19 to 24 days
- Median increase in lifespan (murine P388 leukemia; 12.0 mg/kg qd 1-4): +160%
- Median survival (murine P388 leukemia; 12.0 mg/kg qd 1-4): 26 days
- Net mean percent weight change, day 7 (murine P388 leukemia; 12.0 mg/kg qd 1-4): +2%
- Range of deaths (dying animals) (murine P388 leukemia; 12.0 mg/kg qd 1-4): 22 to 37 days
- Long-term survivors (murine P388 leukemia; 12.0 mg/kg qd 1-4, sacrifice day 60): 2/7
- Median increase in lifespan (murine P388 leukemia; 16.0 mg/kg qd 1-4): > +500%
- Net mean percent weight change, day 7 (murine P388 leukemia; 16.0 mg/kg qd 1-4): -3%
- Range of deaths (dying animals) (murine P388 leukemia; 16.0 mg/kg qd 1-4): 26 to 31 days
- Long-term survivors (murine P388 leukemia; 16.0 mg/kg qd 1-4, sacrifice day 60): 4/7
- pattern of DNA damage (human CLL lymphocytes; CLL B-cell lymphocytes): some level of protein-associated DNA damage in these cells, but also affords significant levels of alkylation-type damage, seen as direct strand breaks and, with increasing time, DNA interstrand crosslinks
- DD-CL, interstrand DNA crosslinks (human CLL lymphocytes; 0 hr after treatment): -0.18 frequency per 10^6 nucleotides
- DP-CL, DNA-protein crosslinks (human CLL lymphocytes; 0 hr after treatment): 0.16 frequency per 10^6 nucleotides
- DD-CL, interstrand DNA crosslinks (human CLL lymphocytes; 1 hr after treatment): -0.04 frequency per 10^6 nucleotides
- DP-CL, DNA-protein crosslinks (human CLL lymphocytes; 1 hr after treatment): 0.17 frequency per 10^6 nucleotides
- DP-CL, DNA-protein crosslinks (human CLL lymphocytes; 3 hr after treatment): 0.19 frequency per 10^6 nucleotides
- clonogenic cell kill [1]: essentially equipotent
- IC90 [1]: 580 nM
- relative strength of drug-DNA intercalation (arbitrary scale) ([5]; 0 = no intercalation, 9 = very strong intercalation): 8
- interference with topoisomerase I-mediated conversion of supercoiled DNA / intercalation ([5]; 4 concentrations, 125-fold range): the ability of these compounds to intercalate, a prerequisite for topoisomerase II inhibition, is clearly established
- potency compared to adriamycin (more potent) [2]: 10 fold
- growth inhibitory activity [2]: almost identical in vitro biological properties; also recorded: moderate to marked growth inhibitory activity
- IC50 [2]: 5 nM
- enhancement of topoisomerase II-mediated DNA cleavage (DNA topoisomerase II): no saturation of background cleavage
- DNA topoisomerase II-inhibitory and alkylating activity (DNA topoisomerase II): clearly establish the DNA topoisomerase II-inhibitory activity and alkylating activity
- autodegradation ([3]; HPLC, chloroform-methanol, overnight in the cold where stated): a second signal was clearly evident
